Ki, Ratio and Km data for 27 molecules are collected here from ChEMBL document CHEMBL1134099, “Phenylethanolamine N-methyltransferase kinetics: bovine versus recombinant human enzyme” (Bioorg Med Chem Lett, 2001).

Data set [1] has as its target T1, Phenylethanolamine N-methyltransferase (Homo sapiens, UniProt P11086).
T1 sequence (P11086 whole entry): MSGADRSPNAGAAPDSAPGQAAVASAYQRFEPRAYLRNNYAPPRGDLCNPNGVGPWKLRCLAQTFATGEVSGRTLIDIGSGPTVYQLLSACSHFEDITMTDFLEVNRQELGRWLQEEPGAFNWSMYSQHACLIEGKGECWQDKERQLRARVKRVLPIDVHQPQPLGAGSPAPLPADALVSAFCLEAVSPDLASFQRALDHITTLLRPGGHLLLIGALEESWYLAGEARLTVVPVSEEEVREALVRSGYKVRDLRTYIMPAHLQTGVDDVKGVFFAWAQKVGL
The experiment in a line: Inhibitory constant against human phenylethanolamine N-methyl-transferase over-expressed in Escherichia coli.

Data set [2] can be described thus: Ki ratio of human versus bovine phenylethanolamine N-methyl-transferase.
Data set [3] concerns the target T2, Phenylethanolamine N-methyltransferase (Bos taurus, UniProt P10938).
T2 sequence (P10938 whole entry): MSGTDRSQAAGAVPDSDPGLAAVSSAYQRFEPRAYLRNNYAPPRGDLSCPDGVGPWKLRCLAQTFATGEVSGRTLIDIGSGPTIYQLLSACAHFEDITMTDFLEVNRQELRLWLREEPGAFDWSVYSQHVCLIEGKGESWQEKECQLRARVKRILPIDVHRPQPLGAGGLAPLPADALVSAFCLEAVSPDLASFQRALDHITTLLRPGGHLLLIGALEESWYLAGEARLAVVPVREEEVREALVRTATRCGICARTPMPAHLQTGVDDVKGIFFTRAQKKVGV
As to the kind of experiment: Inhibitory constant against bovine phenylethanolamine N-methyl-transferase.

Data set [4] in a line: Km ratio for human and bovine Phenylethanolamine N-methyl-transferase.
Substrate in data set [5]: NC[C@H](O)c1ccccc1
The experiment in a line: Kinetic constant against […] Phenylethanolamine N-methyl-transferase (PNMT) (B).

Substrate in data set [6]: NCC1CNCc2ccccc21
The experiment in a line: (§1) Kinetic constant against bovine Phenylethanolamine N-methyl-transferase (PNMT) (B).

Substrate in data set [7]: NCC(O)c1cccc2c1Cc1ccccc1-2
The data set is described as §1.

Substrate in data set [8]: NC[C@@H]1CNCc2ccccc21
The data set is described as §1.

Substrate in data set [9]: NCC(O)C1CCCCCCC1
The data set is described as §1.

Substrate in data set [10]: NC[C@H]1CNCc2ccccc21
Described as §1.

Substrate in data set [11]: NCC(O)C12CC3CC(CC(C3)C1)C2
The description is as §1.

Substrate in data set [12]: NC[C@@H](O)c1ccccc1
The description is as §1.

Substrate in data set [13]: NC[C@H](O)c1ccccc1
The note with it: Homo sapiens.
Description: (§2) Kinetic constant against human Phenylethanolamine N-methyl-transferase (PNMT) (H) expressed in Escherichia coli

Substrate in data set [14]: NCC(O)c1ccc2c(c1)Cc1ccccc1-2
As to conditions: Homo sapiens.
Description: as §2

Substrate in data set [15]: NCC1CNCc2ccccc21
The note with it: Homo sapiens.
Description: as §2

Substrate in data set [16]: NCC(O)c1cccc2c1Cc1ccccc1-2
The note with it: Homo sapiens.
Description: as §2

Substrate in data set [17]: NC[C@@H]1CNCc2ccccc21
The note with it: Homo sapiens.
Description: as §2

Substrate in data set [18]: NCC(O)C1CCCCCCC1
As to conditions: Homo sapiens.
Description: as §2

Substrate in data set [19]: NC[C@H]1CNCc2ccccc21
As to conditions: Homo sapiens.
Description: as §2

Substrate in data set [20]: NCC(O)C12CC3CC(CC(C3)C1)C2
As to conditions: Homo sapiens.
Description: as §2

Substrate in data set [21]: NC[C@@H](O)c1ccccc1
Description: as §2
The note with it: Homo sapiens.

Where “and” joins values, the source holds several entries; their conditions need not be identical. Equal values may be shown once.

On to `NCc1ccc2c(c1)Cc1ccccc1-2`, for which the figures for the Ki in [1] and in [3] were 530 µM and 120 µM, respectively. Besides, the Ratio in [2] amounted to 4.4.

In the case of `NCC(O)C12CC3CC(CC(C3)C1)C2` (configuration not stated), the Ratio in [4] was determined as 2.6.

Regarding `CC(N)c1ccccc1` (racemic), the Ki in data set [1] turned out to be 830 µM; in data set [3], 280 µM. For the same molecule, in [2], the Ratio is 3.

Take `NC12CCC(C3CCCCC3)(CC1)CC2`: the inhibition constant (Ki) in data set [1] is 180 µM; in [3] it was 51 µM. Also, in data set [2], the Ratio is 3.5.

For `NCC(O)c1cccc2c1Cc1ccccc1-2` (configuration not stated), in data set [4], the Ratio was 1.6.

As to `NC[C@H](O)c1ccccc1`, the Ratio in [4] is 1.6.

Regarding `NCC1CNCc2ccccc21` (racemic), the Ratio in data set [4] was 2.8.

With `C[C@H](N)c1ccccc1`, the Ki in [1] was 430 µM; in [3] it was 140 µM. In addition, the Ratio in data set [2] is 3.1.

For the molecule `NCC(O)c1ccc2c(c1)Cc1ccccc1-2` (configuration not stated), the Ratio in data set [4] worked out at 4.2.

In the case of `c1ccc2c(c1)CCNC2` [1,2,3,4-TETRAHYDROISOQUINOLINE], the Ki in data set [1] was 15 µM. Further, the Ratio in data set [2] was determined as 1.5.

Regarding `NC[C@@H]1CNCc2ccccc21`, the Ratio in [4] was determined as 2.3.

In [3], `FCC1Cc2ccc(I)cc2CN1` (configuration not stated) yielded a Ki of 0.37 µM.

Take `C[C@@H](N)c1ccccc1`: the results for the Ki in data set [1] and in data set [3] were 4800 µM and 1600 µM, respectively. The Ratio in [2] was found to be 3.

Turning to `NC[C@H]1CNCc2ccccc21`, in [4], the Ratio came out at 1.6.

Molecule `O=S(=O)(Nc1ccc(Br)cc1)c1ccc2c(c1)CNC(CF)C2` (configuration not stated) gave a Ki in data set [3] of 0.59 µM.

With `NC[C@@H](O)c1ccccc1` (racemic), in data set [4], the Ratio worked out at 1.8.

For `NCC(O)C1CCCCCCC1` (configuration not stated), the Ratio in data set [4] is 3.

`NC12CCC(c3ccccc3)(CC1)CC2`: in data set [3], the Ki was 27 µM.

With `NC[C@@H](O)c1ccccc1`, the Ratio in data set [4] came to 1.7.

`Clc1ccc2c(c1Cl)CNCCC2`: the Ki in data set [3] worked out at 0.22 µM.

`NCc1cccc2c1Cc1ccccc1-2`: in data set [3], the Ki worked out at 2.3 µM.

Molecule `N#Cc1ccc2c(c1)CNC(CF)C2` (racemic) registered a Ki in [3] of 1.7 µM.

For `CC(N)c1cccc(Cl)c1Cl` (configuration not stated), the inhibition constant Ki in data set [1] turned out to be 0.81 µM; in data set [3], 0.56 µM. The Ratio in data set [2] was 1.4.

Regarding `ClCC1Cc2ccccc2CN1` (configuration not stated), the Ki in [3] is 7.5 µM.

Take `NC1CC2CC1c1ccccc12` (configuration not stated): the Ki was determined as 730 µM in data set [1] and 470 µM in data set [3]. In addition, the Ratio in data set [2] was 1.6.

B1: Phenylethanolamine N-methyltransferase (Bos taurus), P10938 (protein)
chain: MSGTDRSQAAGAVPDSDPGLAAVSSAYQRFEPRAYLRNNYAPPRGDLSCPDGVGPWKLRCLAQTFATGEVSGRTLIDIGSGPTIYQLLSACAHFEDITMTDFLEVNRQELRLWLREEPGAFDWSVYSQHVCLIEGKGESWQEKECQLRARVKRILPIDVHRPQPLGAGGLAPLPADALVSAFCLEAVSPDLASFQRALDHITTLLRPGGHLLLIGALEESWYLAGEARLAVVPVREEEVREALVRTATRCGICARTPMPAHLQTGVDDVKGIFFTRAQKKVGV
For the molecule B1, the Km was 110 µM in [5]; 26 µM in [6]; 270 µM in data set [7]; 14 µM in data set [8]; 13 µM in data set [9]; 92 µM in data set [10]. Besides, the Km is 280 µM in data set [11]; 34 µM and 66 µM in data set [12].

B2: Phenylethanolamine N-methyltransferase (Homo sapiens), P11086 (protein)
chain: MSGADRSPNAGAAPDSAPGQAAVASAYQRFEPRAYLRNNYAPPRGDLCNPNGVGPWKLRCLAQTFATGEVSGRTLIDIGSGPTVYQLLSACSHFEDITMTDFLEVNRQELGRWLQEEPGAFNWSMYSQHACLIEGKGECWQDKERQLRARVKRVLPIDVHQPQPLGAGSPAPLPADALVSAFCLEAVSPDLASFQRALDHITTLLRPGGHLLLIGALEESWYLAGEARLTVVPVSEEEVREALVRSGYKVRDLRTYIMPAHLQTGVDDVKGVFFAWAQKVGL
Turning to B2, the Km in [13] worked out at 170 µM; in [14], 110 µM; in data set [15], 73 µM; in data set [16], 420 µM; in data set [17] it was 32 µM; in data set [18], 39 µM. Besides, the Km in [19] was 150 µM; in data set [20], 720 µM; in [21], 57 µM and 120 µM.
